Measurements: patent publication US20260167636A1, “NOVEL COMPOUNDS FOR THE DIAGNOSIS OF TDP-43 PROTEINOPATHIES” (AC IMMUNE SA, priority 2022, published 2026)
Like-named read-outs stand apart in the source and are kept apart here. Marks after values point to notes of the source that are not given here.

Key:
Type in all cases: binding
[1] = target: T1, Human brain derived TDP-43 aggregates (Homo sapiens, UniProt Q13148); test: Micro-radiobinding competition assay against [3H]-Compound 1; conditions: for Ki: 0.24 nM to 2 μM; for Ki / Human brain derived TDP-43 aggregates Mean % competition at 1 μM: [3H]-Compound 1 at 50 nM (40 nM for compound 15); for Human brain derived TDP-43 aggregates Mean % competition at 1 μM: compound at 1 μM; for Human brain derived TDP-43 aggregates Mean % competition at 125 nM: compound at 125 nM, [3H]-Compound 1 at 50 nM
T1 construct: A sample of brain tissue (frontal or temporal cortex) was homogenized; from tissue; host or cells: human FTD patient brain, frontal or temporal cortex, sarkosyl-insoluble fraction
T1 sequence (Q13148 whole entry): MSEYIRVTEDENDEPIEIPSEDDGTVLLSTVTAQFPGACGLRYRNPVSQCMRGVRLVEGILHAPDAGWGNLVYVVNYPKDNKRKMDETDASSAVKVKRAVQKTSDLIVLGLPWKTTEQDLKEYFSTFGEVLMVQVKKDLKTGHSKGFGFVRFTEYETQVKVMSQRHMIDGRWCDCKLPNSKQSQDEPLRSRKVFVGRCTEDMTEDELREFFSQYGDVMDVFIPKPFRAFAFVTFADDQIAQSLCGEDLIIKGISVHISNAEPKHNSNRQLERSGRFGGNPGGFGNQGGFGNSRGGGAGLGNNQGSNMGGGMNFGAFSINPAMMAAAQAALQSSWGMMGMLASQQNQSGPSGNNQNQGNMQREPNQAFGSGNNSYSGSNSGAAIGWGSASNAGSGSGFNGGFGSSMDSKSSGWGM
Experimental: (§1) Human brain extracts were prepared as described in Laferriere et al., 2019, Nature Neurosc. A sample of brain tissue (frontal or temporal cortex) was homogenized at 1:4 (w/v) ratio in the homogenization-solubilization (HS) buffer at 4° C. using tissue homogenizer (Precellys) with CKmix homogenization tubes. The following sequence was used for homogenization: 3 cycles of 30 seconds at 5000 rpm (with 15 seconds pause between each cycle). Homogenized samples were aliquoted and stored at −80° C. in 1.5 mL low protein binding tubes.
(§2) Brain homogenates were thawed on ice and resuspended in HS buffer to obtain a final concentration of 2% sarkosyl, 1 unit/μL Benzonase and 1 mM MgCl2. The samples were then incubated at 37° C. under constant shaking at 600 rpm on a thermomixer for 45 minutes (min). The supernatants were collected in a new tube (sarkosyl-soluble fraction, S1). The pellet was resuspended in 1000 μL of myelin floatation buffer and centrifuged at 20,000 g for 60 min at 4° C. The supernatant was carefully removed to remove all the floating lipids. This step was repeated if all the lipids could not be removed in a single step. The pellet was subsequently washed with Phosphate-Buffered Saline (PBS) and centrifuged for 30 min at 20,000 g at 4° C. The final pellet was resuspended in 200 μL PBS and stored at −80° C. (sarkosyl-insoluble fraction). The samples were analyzed by immunoblotting in denaturing conditions.
(§3) Human FTD sarkosyl-insoluble brain extracts were spotted onto microarray slides. Three batches of extracts were used. The slides were incubated with a tritiated reference ligand at 25 nM or with tritiated Compound 1 ([^3H]-Compound 1) at 40 nM or 50 nM depending on the batch used. The example compounds (non-radiolabeled) were used at 1 μM and 125 nM (or 1 μM and 100 nM for compound 15). In some cases, the non-radiolabeled example compounds were further assessed for a range of different concentrations, varying from 0.24 nM to 2 μM for determination of the inhibition constant (Ki). After incubation, slides were washed and scanned by a real-time autoradiography system (BeaQuant, ai4R). Quantification of the signal was performed by using the Beamage image analysis software (ai4R). Non-specific signal was determined with an excess of non-radiolabeled reference compound (2 μM) and specific binding was calculated by subtracting the non-specific signal from the total signal. Competition was calculated as percent, where 0% was defined as the specific binding in the presence of vehicle and 100% as the values obtained in the presence of excess of the non-radiolabeled reference compound. Ki values were calculated in GraphPad Prism8 by applying a nonlinear regression curve fit using a one site, specific binding model. Measurements were performed with at least two technical replicates in the two-concentration competition experiment and with one technical replicate in the experiments including a range of concentrations. For compounds tested in more than one experiment, the mean of the replicates or K; values in independent experiments is reported.
Example compounds 11 to 15 were assessed for their potency to compete with the binding of [^3H]-Compound 1 on two different batches of brain extracts. Results of the micro-radiobinding competition assay for the example compounds are shown in Table 3 below as: % competition at 1 μM and 125 nM (with Compound 1 at 50 nM) for compounds 11 to 14, or % competition at 1 μM and 100 nM (with Compound 1 at 40 nM) for compound 15 respectively.

[2] = target: T2, TDP-43 aggregates in human FTD sarkosyl-insoluble brain extracts (Homo sapiens, UniProt Q13148); test: Kd determination with micro-radiobinding (saturation) assay on human FTD sarkosyl insoluble brain extract
T2 construct: A sample of brain tissue (frontal or temporal cortex) was homogenized; from tissue; host or cells: human FTD patient brain, frontal or temporal cortex, sarkosyl-insoluble fraction
T2 sequence (Q13148 whole entry): as above
Experimental: as §1, §2
2.1 Kd Determination on Human FTD Sarkosyl Insoluble Brain Extract with Micro-Radiobinding Assay of [^3H]-Compound 1, 4, 8, 11, 12
Human FTD sarkosyl-insoluble brain extracts were spotted onto microarray slides. The slides were incubated with [^3H]-Compound 1, [^3H]-Compound 4, [^3H]-Compound 8, [^3H]-Compound 11, or [^3H]-Compound 12 respectively, in a range of concentrations, varying from 1.93 to 300 nM. After incubation, slides were washed and scanned by a real-time autoradiography system (BeaQuant, ai4R). Quantification of the signal was performed by using the Beamage image analysis software (ai4R). Non-specific signal was determined with an excess of non-radiolabelled compound 1, 4, 8, 11 or 12 (2 μM), respectively, and specific binding was calculated by subtracting the non-specific signal from the total signal.
The Kd (Dissociation constant) and R^2 (parameter ranging between 0.0 and 1.0 that quantifies the goodness of fit, and the best curve fit obtained with value of 1.0) were obtained by fitting the specific binding data with non-linear regression analysis, using a one-site specific binding model in GraphPad Prism8.

[3] = target: T3, FTD patient brain-derived TDP-43 aggregates (Homo sapiens, UniProt Q13148); test: Micro-radiobinding competition assay against [3H]-reference ligand; conditions: tritiated reference ligand at 25 nM; for Ki: 0.24 nM to 2 μM; for Human brain derived TDP-43 aggregates Mean % competition at 125 nM: compound at 125 nM; for Human brain derived TDP-43 aggregates Mean % competition at 1 μM: compound at 1 μM
T3 construct: A sample of brain tissue (frontal or temporal cortex) was homogenized; from tissue; host or cells: human FTD patient brain, frontal or temporal cortex, sarkosyl-insoluble fraction
T3 sequence (Q13148 whole entry): as above
Experimental: as §1, §2, §3
Results: Example compounds 1 to 10 were assessed for their potency to compete with the binding of [^3H]-reference ligand to FTD patient brain-derived TDP-43 aggregates. Results of the micro-radiobinding competition assay for the example compounds are shown in Table 2 below as: % competition at 1 μM and 125 nM.

[4] = different batch of FTD sarkosyl-insoluble brain extracts, read-out: Kd (dissociation constant)
[5] = tritiated compound 1.93 to 300 nM on human FTD sarkosyl-insoluble brain extracts, one-site specific binding fit, read-out: Kd (dissociation constant)

| Ki [3] [nM] | Human brain derived TDP-43 aggregates Mean % competition at 125 nM [3] [%] | Human brain derived TDP-43 aggregates Mean % competition at 1 μM [3] [%] | Structure (SMILES) | also measured |
| --- | --- | --- | --- | --- |
| – | – | – | O=C(Nc1cnsc1)c1sc(-c2ccc(N3CC[C@@H](F)C3)nc2)nc1F [Compound 15] | Ki [1]: 10 nM; Mean % competition at 100 nM ([1]; compound at 100 nM, [3H]-Compound 1 at 40 nM): 47* %; Human brain derived TDP-43 aggregates Mean % competition at 1 μM [1]: 92% |
| – | – | – | O=C(Nc1cncc(F)c1)c1sc(-c2ccc(N3CC[C@@H](F)C3)nc2)nc1F [Compound 12, (R)-4-fluoro-N-(5-fluoropyridin-3-yl)-2-(6-(3-fluoropyrrolidin-1-yl)pyridin-3-yl)thiazole-5-carboxamide] | Ki [1]: 213 nM; Human brain derived TDP-43 aggregates Mean % competition at 125 nM [1]: 43%; Human brain derived TDP-43 aggregates Mean % competition at 1 μM [1]: 50% |
| – | – | – | O=C(Nc1ccncc1)c1cnc(-c2cnc(N3CC[C@H](F)C3)nc2)s1 [[^3H]-Compound 8, tritiated (S)-2-(2-(3-fluoropyrrolidin-1-yl)pyrimidin-5-yl)-N-(pyridin-4-yl)thiazole-5-carboxamide] | Kd [2, 4]: 75 nM |
| – | – | – | O=C(Nc1ccc(F)nc1)c1sc(-c2ccc(N3CC[C@@H](F)C3)nc2)nc1F [Compound 13, (R)-4-fluoro-N-(6-fluoropyridin-3-yl)-2-(6-(3-fluoropyrrolidin-1-yl)pyridin-3-yl)thiazole-5-carboxamide] | Ki [1]: 107 nM; Human brain derived TDP-43 aggregates Mean % competition at 125 nM [1]: 42%; Human brain derived TDP-43 aggregates Mean % competition at 1 μM [1]: 75% |
| 71 | 54 | 70 | O=C(Nc1ccc(F)nc1)c1cnc(-c2ccc(N3CC[C@@H](F)C3)cc2)s1 [Compound 10] | – |
| 105 | 63 | 102 | O=C(Nc1ccc(F)nc1)c1cnc(-c2ccc(N3CC[C@@H](F)C3)nc2)s1 [Compound 1, (R)—N-(6-fluoropyridin-3-yl)-2-(6-(3-fluoropyrrolidin-1-yl)pyridin-3-yl)thiazole-5-carboxamide] | – |
| 82 | 60 | 83 | O=C(Nc1ccncc1)c1cnc(-c2cnc(N3CC[C@@H](F)C3)cn2)s1 [Compound 9] | – |
| 75 | 47 | 78 | O=C(Nc1ccncc1)c1cnc(-c2cnc(N3CC[C@H](F)C3)nc2)s1 [Compound 8, (S)-2-(2-(3-fluoropyrrolidin-1-yl)pyrimidin-5-yl)-N-(pyridin-4-yl)thiazole-5-carboxamide] | – |
| – | – | – | O=C(Nc1ccc(F)nc1)c1cnc(-c2ccc(N3CC[C@@H](F)C3)nc2)s1 [[^3H]-Compound 1] | Kd ([2]; data from two independent experiments, human FTD sarkosyl-insoluble brain extracts, read-out: average Kd): 53 ± 10 nM; specific binding ([2]; human FTD sarkosyl insoluble brain extracts, result in words): high specific binding; Kd [2, 5]: 52 nM |
| – | – | – | O=C(Nc1cncnc1)c1sc(-c2ccc(N3CC[C@@H](F)C3)nc2)nc1F [Compound 14] | Ki [1]: 153 nM; Human brain derived TDP-43 aggregates Mean % competition at 125 nM [1]: 38%; Human brain derived TDP-43 aggregates Mean % competition at 1 μM [1]: 77% |
| 223 | 53 | 70 | O=C(Nc1cnc(F)cn1)c1cnc(-c2ccc(N3CC[C@@H](F)C3)nc2)s1 [Compound 5] | – |
| – | – | – | O=C(Nc1cncc(F)c1)c1cnc(-c2ccc(N3CC[C@@H](F)C3)nc2)s1 [[^3H]-Compound 11, tritiated (R)—N-(5-fluoropyridin-3-yl)-2-(6-(3-fluoropyrrolidin-1-yl)pyridin-3-yl)thiazole-5-carboxamide] | Kd [2, 5]: 80 nM |
| 89 | 46 | 83 | O=C(Nc1cnc(F)nc1)c1cnc(-c2ccc(N3CC[C@@H](F)C3)nc2)s1 [Compound 6] | – |
| – | – | – | O=C(Nc1cnsc1)c1cnc(-c2ccc(N3CC[C@@H](F)C3)nc2)s1 [[^3H]-Compound 4, tritiated (R)-2-(6-(3-fluoropyrrolidin-1-yl)pyridin-3-yl)-N-(isothiazol-4-yl)thiazole-5-carboxamide] | Kd [2, 4]: 51 nM |
| – | – | – | O=C(Nc1cncc(F)c1)c1sc(-c2ccc(N3CC[C@@H](F)C3)nc2)nc1F [[^3H]-Compound 12] | Kd [2, 5]: 67 nM |
| 116 | 60 | 94 | O=C(Nc1cnsc1)c1cnc(-c2ccc(N3CC[C@@H](F)C3)nc2)s1 [Compound 4, (R)-2-(6-(3-fluoropyrrolidin-1-yl)pyridin-3-yl)-N-(isothiazol-4-yl)thiazole-5-carboxamide] | – |
| – | – | – | O=C(Nc1cncc(F)c1)c1cnc(-c2ccc(N3CC[C@@H](F)C3)nc2)s1 [Compound 11, (R)—N-(5-fluoropyridin-3-yl)-2-(6-(3-fluoropyrrolidin-1-yl)pyridin-3-yl)thiazole-5-carboxamide] | Ki [1]: 50 nM; Human brain derived TDP-43 aggregates Mean % competition at 125 nM [1]: 65%; Human brain derived TDP-43 aggregates Mean % competition at 1 μM [1]: 80% |
| 63 | 52 | 80 | Nc1cc(NC(=O)c2cnc(-c3ccc(N4CC[C@H](F)C4)nc3)s2)ccc1F [Compound 7] | – |
